Results published in patent US4510136A (priority 1983, dated 1985).

Experiments:
Type in all cases: in vivo
[1] = tested on: Puccinia recondita var. tritici; test: Wheat leaf rust control on sprayed wheat seedlings (Example 79)
Protocol: The compounds of this invention were dissolved in acetone in an amount equal to 6% of the final volume and then suspended at a concentration of 100 ppm in purified water containing 250 ppm of the surfactant TREM 014 (polyhydric alcohol esters). These suspensions were sprayed to the point of run-off on wheat seedlings. The following day, the plants were inoculated with a spore suspension of Puccinia recondita var. tritici, causal agent of wheat leaf rust, and incubated in a saturated humidity chamber at 20° for 24 hours and then in a growth room for an additional 7 days, when disease ratings were made. Treated plants from successful treatments had few or no rust pustules while the untreated plants had numerous rust pustules on each leaf.

Cercospora arachidicola = test: Peanut early leafspot control on sprayed peanut seedlings (Example 84); settings: 100 ppm spray, day before inoculation; for pest or weed control at 100 ppm: Mycosphaerella arachidis, 360 h, read-out: % Control Peanut Easly Leafspot
Protocol: These suspensions were sprayed to the point of run-off on peanut seedlings. The following day, the plants were inoculated with a spore suspension of Cercospora arachidicola, causal agent of peanut early leafspot, and incubated in a saturated humidity chamber at 27° for 24 hours and then in a growth room for an additional 14 days, when disease ratings were made. Treated plants from successful treatments had few or no leafspots while the untreated plants had numerous leafspots.

Erysiphe cichoracearum = test: Cucumber powdery mildew control on sprayed cucumber seedlings (Example 80); settings: 100 ppm spray, day before inoculation; for pest or weed control at 100 ppm: Golovinomyces cichoracearum, 168 h
Protocol: These suspensions were sprayed to the point of run-off, on cucumber seedlings. The following day, the plants were inoculated with a spore suspension of the fungus Erysiphe cichoracearum, causal agent of cucumber powdery mildew, and incubated in a growth room for 7 days. Disease ratings were then made. Treated plants from successful treatments had little or no powdery mildew in contrast to untreated plants which were covered with powdery mildew. Phytotoxicity in the form of growth reduction or hormonal effects was observed on some of the plants in association with disease control.

Phytophthora infestans = test: whole plant or invertebrate; settings: for pest or weed control at 100 ppm: Phytophthora infestans, in Solanum lycopersicum, 168 h, read-out: % Control of Tomato Late Blight, 100 ppm spray, day before inoculation
Pyricularia oryzae = test: whole plant or invertebrate; settings: for pest or weed control at 100 ppm: Pyricularia oryzae, 168 h, read-out: % Control of Rice Blast, 100 ppm spray, day before inoculation
Rhizoctonia solani = test: Rice sheath blight control on sprayed rice seedlings (Example 87); settings: 100 ppm spray, day before inoculation; for pest or weed control at 100 ppm: Rhizoctonia solani, 168 h
Protocol: The compounds of the previous examples were again dissolved in acetone in an amount equal to 6% of the final volume and then suspended at a concentration of 100 ppm in purified water containing 250 ppm of the surfactant TREM 014 (polyhydric alcohol esters). This suspension was sprayed to the point of run-off on rice seedlings. The following day, the plants were inoculated with a mixture of bran and the mycelium of Rhizoctonia solani, causal agent of sheath blight of rice, and incubated in a growth room for 7 days. Disease ratings were then made. Treated plants from successful treatments had little sheath blight in contrast to untreated plants which were covered with sheath blight.

Helminthosporium maydis = test: Southern corn leaf blight control on sprayed corn seedlings (Example 83); settings: 100 ppm spray, day before inoculation; for pest or weed control at 100 ppm: Bipolaris maydis, 192 h
Protocol: The compounds of the previous examples were again dissolved in acetone in an amount equal to 6% of the final volume and then suspended at a concentration of 100 ppm in purified water containing 250 ppm of the surfactant TREM 014 (polyhydric alcohol esters). These suspensions were sprayed to the point of run-off on corn seedlings. The following day, the plants were inoculated with a spore suspension of Helminthosporium maydis, causal agent of southern corn leaf blight, and incubated in a saturated humidity chamber at 20° for 24 hours and then in a growth room for an additional 7 days, when disease ratings were made. Treated plants from successful treatments had few or no lesions while the untreated plants had numerous lesions on each leaf. Phytotoxicity expressed as growth reduction was observed on some of the plants in association with disease control.

Venturia inaequalis = test: Apple scab control on sprayed apple seedlings (Example 82); settings: 100 ppm spray, day before inoculation; for pest or weed control at 100 ppm: Venturia inaequalis
Protocol: These suspensions were sprayed to the point of run-off on apple seedlings. The following day, the plants were inoculated with a spore suspension of the fungus Venturia inaequalis, causal agent of apple scab, and incubated in a saturated humidity chamber at 20° for 24 hours and then in a growth room for an additional 10-12 days. Treated plants from successful treatments had fewer apple scab lesions when compared to untreated plants which were covered with scab lesions. Phytotoxicity expressed as growth reduction was observed on some of the plants in association with disease control.

[2] = Puccinia recondita, 168 h, 100 ppm spray, day before inoculation
[3] = 100 ppm spray, day before inoculation

SMILES	pest or weed control at 100 ppm [1, 2] [%]	pest or weed control at 100 ppm (Cercospora arachidicola) [%]	pest or weed control at 100 ppm (Erysiphe cichoracearum) [%]	pest or weed control at 100 ppm (Phytophthora infestans) [%]	pest or weed control at 100 ppm (Pyricularia oryzae) [%]	pest or weed control at 100 ppm (Rhizoctonia solani) [%]	pest or weed control at 100 ppm (Helminthosporium maydis) [%]	pest or weed control at 100 ppm (Venturia inaequalis) [%]	% Control Wheat Rust [1, 3] [%]	% Control Peanut Easly Leafspot (Cercospora arachidicola) [%]	% Control Cucumber Powdery Mildew (Erysiphe cichoracearum) [%]	% Control of Tomato Late Blight (Phytophthora infestans; [3]) [%]	% Control of Rice Blast (Pyricularia oryzae; [3]) [%]	% Control of Rice Sheath Blight (Rhizoctonia solani) [%]	% Control of Southern Corn Leaf Blight (Helminthosporium maydis) [%]	% Control Apple Scab (Venturia inaequalis) [%]	pest or weed control at 200 ppm ([1]; Puccinia recondita, 168 h, applied at 200 ppm) [%]
C[Si](C)(Cn1cncn1)c1cc(Cl)cc(Cl)c1 [(3,5-Dichlorophenyl)dimethyl(1H-1,2,4-triazol-1-ylmethyl)silane]	80	0	0	0	0	0	40	0	–	–	–	–	–	–	–	–	–
CC(C)(C)O[Si](C)(Cn1cncn1)c1ccccc1 (centres unmarked) [(1,1-dimethylethoxy)methyl(phenyl)(1H-1,2,4-triazol-1-ylmethyl)silane]	0	0	100	0	0	0	0	0	–	–	–	–	–	–	–	–	–
C[Si](C)(Cn1cncn1)c1cccc(-c2ccccc2)c1 [(1,1'-Biphenyl-3-yl)dimethyl(1H-1,2,4-triazol-1-ylmethyl)silane]	80	90	0	0	0	0	100	50	–	–	–	–	–	–	–	–	–
CC(C)O[Si](C)(Cn1cncn1)c1ccccc1 (centres unmarked) [Methyl(phenyl)(2-propoxy)(1H-1,2,4-triazol-1-ylmethyl)silane]	0	0	100	0	0	0	0	0	–	–	–	–	–	–	–	–	–
C[Si](C)(Cn1cncn1)c1cccc(Cl)c1 [(3-Chlorophenyl)dimethyl(1H-1,2,4-triazol-1-ylmethyl)silane]	0	0	0	0	0	0	0	60	–	–	–	–	–	–	–	–	–
Cc1ccc([Si](C)(Cn2cncn2)c2ccc(C)cc2)cc1 [Methyl[bis(4-methylphenyl)](1H-1,2,4-triazol-1-ylmethyl)silane]	0	0	0	0	80	30	0	0	–	–	–	–	–	–	–	–	–
C[Si](C)(Cn1cncn1)c1ccc(-c2ccccc2)cc1.[Cl][Cu][Cl] [(1,1'-Biphenyl-4-yl)dimethyl(1H-1,2,4-triazol-1-ylmethyl)silane, 1:1 complex with cupric chloride]	–	–	–	–	–	–	–	–	100	100	100	90	100	0	80	100	–
CC(C)O[Si](C)(Cn1cncn1)c1ccc(-c2ccccc2)cc1 (centres unmarked) [(1,1'-biphenyl-4-yl)methyl(2-propoxy)(1H-1,2,4-triazol-1-ylmethyl)silane]	100	100	100	0	0	0	90	100	–	–	–	–	–	–	–	–	–
Fc1ccc([Si](Cn2cncn2)(c2ccc(F)cc2)c2ccc(F)cc2)cc1 [tris(4-Fluorophenyl)(1H-1,2,4-triazol-1-ylmethyl)silane]	90	90	0	0	0	0	0	60	–	–	–	–	–	–	–	–	–
C[Si](Cn1cncn1)(c1ccccc1Cl)c1ccccc1Cl [[bis(2-Chlorophenyl)]methyl(1H-1,2,4-triazol-1-ylmethyl)silane]	100	100	100	0	90	60	60	40	–	–	–	–	–	–	–	–	–
O[Si](Cn1cnnc1)(c1ccc(Cl)cc1)c1ccc(Cl)cc1 [bis(4-Chlorophenyl)hydroxy(4H-1,2,4-triazol-4-ylmethyl)silane]	90	100	100	0	0	0	80	100	–	–	–	–	–	–	–	–	–
C[Si](Cn1cncn1)(c1ccccc1)c1ccc(Br)cc1 (centres unmarked) [4-Bromophenyl(methyl)phenyl(1H-1,2,4-triazol-1-ylmethyl)silane]	0	100	100	0	80	90	80	100	–	–	–	–	–	–	–	–	–
CSc1ccc([Si](C)(C)Cn2cncn2)cc1 [Dimethyl(4-methylthiophenyl)(1H-1,2,4-triazol-1-ylmethyl)silane]	0	0	100	0	0	0	80	60	–	–	–	–	–	–	–	–	–
CC(C)(C)c1ccc([Si](C)(C)Cn2cncn2)cc1 [[4-(1,1-Dimethylethyl)phenyl]dimethyl(1H-1,2,4-triazol-1-ylmethyl)silane]	–	35	0	0	90	90	60	0	–	–	–	–	–	–	–	–	80
C[Si](C)(Cn1cncn1)c1ccc(-c2ccc(Br)cc2)cc1 [(4'-Bromo-1,1'-biphenyl-4-yl)dimethyl(1H-1,2,4-triazol-1-ylmethyl)silane]	100	100	100	30	90	90	70	100	–	–	–	–	–	–	–	–	–
Cc1ncnn1C[Si](C)(C)c1ccc(-c2ccccc2)cc1 [(1,1'-Biphenyl-4-yl)dimethyl(5-methyl-1H-1,2,4-triazol-1-ylmethyl)silane]	100	100	100	80	0	0	80	100	–	–	–	–	–	–	–	–	–
